These results are taken from patent US8362012B2, “Benzoxazine benzimidazole derivative, a pharmaceutical composition comprising the same, and a use thereof” (Daewoong Pharmaceutical Co., Ltd., priority 2008, dated 2013).

For experiment [1], the target named is T1, human vanilloid-1 (hVR-1) in hVR-1-HEK293 cell line (Homo sapiens, UniProt Q8NER1).
T1 construct: expressed in transfected cells; host or cells: HEK293 Tet-on strain, doxycycline-induced
Nature of the experiment: Inhibitory effect on calcium influx via a vanilloid receptor (capsaicin-stimulated, Fluo-3/AM). Format: cell-based. The settings on record: hVR-1-HEK293 cells, 1 μM of capsaicin, compounds 0.015˜2000 nM; read-out: I.A. (inhibitory activity), IC50 on intracellular calcium influx. The procedure, abridged:
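Doxycycline-induced (1 μg/mL, 2 days) hVR-1-HEK293 cells loaded with Fluo-3/AM for 90 min at 37° C, then stimulated with 1 μM capsaicin. Calcium influx expressed as background-corrected fluorescence relative to positive control, analysed by Hill equation and graded by activity criteria.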
A general note: A change in cytosolic calcium serves as a functional read-out for many receptors and channels.

The next experiment relates to ICR male mice. Nature of the experiment: Phenyl-p-quinone (PBQ)-induced writhing experiment using mice. It counts as in vivo. Conditions: orally administered, PBQ (0.02%) intraperitoneally after 1 hour, writhing counted for 10 min.

The structures appear in SMILES notation.

T1 sequence (Q8NER1 whole entry): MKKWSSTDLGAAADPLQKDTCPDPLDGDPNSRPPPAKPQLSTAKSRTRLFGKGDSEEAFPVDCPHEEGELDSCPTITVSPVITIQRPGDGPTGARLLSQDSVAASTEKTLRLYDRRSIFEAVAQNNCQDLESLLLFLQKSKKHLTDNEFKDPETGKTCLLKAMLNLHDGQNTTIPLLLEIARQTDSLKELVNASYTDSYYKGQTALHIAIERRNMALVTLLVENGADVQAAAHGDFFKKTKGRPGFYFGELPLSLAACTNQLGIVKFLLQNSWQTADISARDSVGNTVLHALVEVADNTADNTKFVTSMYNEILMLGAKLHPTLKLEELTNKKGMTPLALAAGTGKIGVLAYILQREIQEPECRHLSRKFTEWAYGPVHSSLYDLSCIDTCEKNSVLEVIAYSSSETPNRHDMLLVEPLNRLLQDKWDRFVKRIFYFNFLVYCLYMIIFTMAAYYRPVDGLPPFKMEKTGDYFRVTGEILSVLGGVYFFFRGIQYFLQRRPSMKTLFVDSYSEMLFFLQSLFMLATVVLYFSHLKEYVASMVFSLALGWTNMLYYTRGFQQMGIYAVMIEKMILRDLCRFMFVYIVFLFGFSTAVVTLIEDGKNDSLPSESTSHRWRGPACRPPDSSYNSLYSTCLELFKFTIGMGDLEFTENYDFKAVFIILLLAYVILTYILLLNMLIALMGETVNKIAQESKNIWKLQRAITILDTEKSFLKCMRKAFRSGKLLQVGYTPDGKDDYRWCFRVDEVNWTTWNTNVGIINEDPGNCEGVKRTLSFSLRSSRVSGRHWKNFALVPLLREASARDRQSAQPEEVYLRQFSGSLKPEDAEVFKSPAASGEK

Usually IC50 stands for the concentration that gives 50% inhibition. Regarding `COC[C@H]1COc2c(-c3nc4ccc(C)c(C)c4[nH]3)cccc2N1c1ccc(C)cn1` [Example 100, (S)-8-(6,7-dimethyl-1H-benzimidazol-2-yl)-3-methoxymethyl-4-(5-methyl-pyridin-2-yl)-3,4-dihydro-2H-benzo[1,4]oxazine], in experiment [1], the IC50 lay in the range of 0.02 to 0.1 µM. Besides, the “I.A. (inhibitory activity), % inhibition rate of writhing” value with ICR male mice is “++ (20˜50%)”.

`COC[C@H]1COc2c(-c3nc4ccc(C#N)cc4[nH]3)cccc2N1c1ccc(C)cn1` [Example 101, 2-[(S)-3-methoxymethyl-4-(5-methyl-pyridin-2-yl)-3,4-dihydro-2H-benzo[1,4]oxazin-8-yl]-3H-benzimidazol-5-carbonitrile]: in experiment [1], the IC50 is 0.02 to 0.1 µM. The “I.A. (inhibitory activity), % inhibition rate of writhing” value with ICR male mice was “+++ (51-80%)”.

Take `COC[C@H]1COc2c(-c3nc4cc(F)c(F)cc4[nH]3)cccc2N1c1ccc(C)cn1` [Example 102, (S)-8-(5,6-difluoro-1H-benzimidazol-2-yl)-3-methoxymethyl-4-(5-methyl-pyridin-2-yl)-3,4-dihydro-2H-benzo[1,4]oxazine]: the IC50 in experiment [1] is below 0.02 µM. Further, in the experiment on ICR male mice, the “I.A. (inhibitory activity), % inhibition rate of writhing” value was “+++ (51-80%)”.

On to `COC[C@H]1COc2c(-c3nc4cc(Cl)c(F)cc4[nH]3)cccc2N1c1ccc(C)cn1` [Example 103, (S)-8-(5-chloro-6-fluoro-1H-benzimidazol-2-yl)-3-methoxymethyl-4-(5-methyl-pyridin-2-yl)-3,4-dihydro-2H-benzo[1,4]oxazine], for which the IC50 in experiment [1] was below 0.02 µM. In addition, the “I.A. (inhibitory activity), % inhibition rate of writhing” value with ICR male mice was “+++ (51-80%)”.

Regarding `COC[C@H]1COc2c(-c3nc4c(C)cc(Br)cc4[nH]3)cccc2N1c1ccc(C)cn1` [Example 104, (S)-8-(6-bromo-4-methyl-1H-benzimidazol-2-yl)-3-methoxymethyl-4-(5-methyl-pyridin-2-yl)-3,4-dihydro-2H-benzo[1,4]oxazine], in experiment [1], the concentration for half-maximal inhibition (IC50) was below 0.02 µM. Also, the “I.A. (inhibitory activity), % inhibition rate of writhing” value with ICR male mice was “+++ (51-80%)”.
